Holding throughout (assay type): in vivo
In assay [1] the test system is Git1 gene-deficient hetero (+/−) mice. The experiment in a line: Passive avoidance test (fear memory learning ability). Particulars: Git1 hetero type (+/−) mice, KDS2010 orally 10 mg/kg per day. As to the method: The hippocampus, one of the regions that affects ADHD, is responsible for functions related to learning and memory. In order to evaluate the effect of ameliorating ADHD upon administration of KDS2010, KDS2010 was administered to Git1 gene-deficient hetero (+/−) mice, an animal model with ADHD, and a passive avoidance test that enables evaluation on a fear memory learning ability in relation to the function of the dentate gyrus in the hippocampus was conducted. The passive avoidance test was performed using a common passive avoidance test device which was a shuttle box divided into two rooms, one of which was equipped with a bright light bulb to create a bright environment that the laboratory animals dislike, while the other room was designed not to allow light to enter such that the laboratory animals may feel comfortable. […] Immediately thereafter, after 24 hours and after 48 hours, the latency time of entering a dark room without an electric shock is measured up to 90 seconds (retention tests 1, 2, and 3).
The KDS2010 was orally administered at a concentration of 10 mg/kg per day. The amount (mg) of each drug was calculated according to the weight (kg) of each mouse, followed by dissolution in 100 μL of drinking water. […] The daily amount of water consumed by adult mice older than 7 weeks was administered at a calculated dose of 10 ml/day. […]

Assay [2] deals with Git1 hetero type (+/−) mice. The experiment in a line: Self-grooming test. Conditions: Git1 hetero type (+/−) mice administered KDS2010; recorded for 10 minutes; compared with wild type (+/+); FIG. 5. The protocol: (§1) The KDS2010 was orally administered at a concentration of 10 mg/kg per day. The amount (mg) of each drug was calculated according to the weight (kg) of each mouse, followed by dissolution in 100 μL of drinking water. Oral administration was performed once a day. The daily amount of water consumed by adult mice older than 7 weeks was administered at a calculated dose of […]. The drug was administered 3 days prior to passive avoidance, and the drug administration was continued during the passive avoidance test. KDS2010 is an inhibitor against monoamine oxidase B (MAOB) and may reduce GABA levels that are increased in astrocytes of the hippocampus.
For a self-grooming test, mice were placed in a plastic cylinder with a diameter of 15 cm and a height of 35 cm. In the plastic cylinder, mice were habituated for about 20 minutes, and then self-grooming behavior was recorded for 10 minutes. The duration of the self-grooming behavior was checked through the recorded video, and if there was an interval of 5 seconds, it was measured as different self-grooming. The number of each different self-grooming behavior was expressed as each different self-grooming bout.

For assay [3], the system named is Git1 hetero type (+/−) mice. The experiment in a line: Open field test (hyperactivity, locomotor activity). Particulars: Git1 hetero type (+/−) mice administered KDS2010; movement measured for 10 minutes; FIG. 4. The protocol:
as §1
ADHD is diagnosed based on two main tendencies including a hyperactive type and an inattention type, but the two symptoms don't necessarily occur together. From this point of view, hyperactivity-related abilities should not be impaired in the course of treatment for inattention, which has been determined through an open field test that enables measurement of hyperactivity.
An open field test was performed to assess whether there is a behavioral improvement. […] The mice were placed in the center of an open field test cage (30×30×30 cm), and its movement was measured for 10 minutes. The measured videos were analyzed for locomotor activity through ANYmaze.

The structures appear in SMILES notation.

This is an account of results in patent publication US12691083B2, “Pharmaceutical composition for preventing or treating attention deficit/hyperactivity disorder, containing KDS2010 as active ingredient” (DANKOOK UNIVERSITY CHEONAN CAMPUS INDUSTRY ACADEMIC …, priority 2021, dated 2026).

Regarding `C[C@H](NCc1ccc(-c2ccc(C(F)(F)F)cc2)cc1)C(N)=O` [KDS2010, (S)-2-(((4′-(trifluoromethyl)-[1,1′-biphenyl]-4-yl)methyl)amino)propenamide], the “fear memory learning ability” value in assay [1] (from 3 days prior to and during test, compared with wild type (+/+), FIG. 2) is on record as “recovery in the fear memory learning ability, similar to the wild type (+/+) mice”. Also, the “entry time (time to enter the dark room), retention” value in assay [1] (retention trial, compared with wild type) was “entry time recovered closer to the wild type”. The self-grooming duration entry in assay [2] is on record as “decrease to a value similar to the wild type (+/+) mice”. Moreover, the effect on hyperactivity result in assay [3] was “no effect was derived on hyperactivity”.
